Measurements published in PMC9265957, “Bioavailability of Rosehip (Rosa canina L.) Infusion Phenolics Prepared by Thermal, Pulsed Electric Field and High Pressure Processing” (Foods, 2022).
Like-named read-outs stand apart in the source and are kept apart here. Blank lines part the entries; values can stand above or below the molecule they belong to.

Columns and labels:
[1] = set-up: method as in doi:10.1111/jfpp.16096; conditions: rosehip infusions by TT, HPP and PEF, depending on the treatment; cited from earlier work
[2] = set-up: method as in PMID 31100382; conditions: ex vivo; after one hour; cited from earlier work
Caco-2 cells = test: Transepithelial transportation of catechin from digests across the Caco-2 monolayer; assay type: in vitro ADME, Human; conditions: 4 h; digests diluted 1/5
Experimental: The in vitro gastrointestinal digestion was simulated regarding the procedures of Ozkan et al. and Sessa et al., with minor modifications. This assay involves two sequential stages: gastric digestion and bile salt/pancreatin digestion. For the gastric digestion, the samples containing 1.3 mg/mL final concentration of pepsin at pH 2 were placed in a water bath (GFL 1092, Burgwedel, Germany) at 37 °C and 100 rpm for a 2 h incubation period. To simulate intestinal digestion, gastric chyme was mixed with 0.175 mg/mL pancreatin and 1.10 mg/mL bile salts at pH 6.5, and then placed in a water bath at 37 °C and 100 rpm for 2 h incubation. […]
The transport trial was carried out based on Wu et al.. […] TEER values of the cells were determined before the experiment, after the last sampling and 24 h after the incubation period. […]
The quantification of phenolic compounds in rosehip infusions was conducted by UPLC based on Ozkan et al., with minor changes. Digests obtained from apical and basolateral sides were analyzed by a Waters Acquity UPLC system (Waters Co., Milford, MA, USA) combined with a diode array detector (DAD). […] Catechin concentration was determined by using its authentic standard. […] The results were expressed as mg catechin per 100 g dw (dry weight) of rosehip. […]

[3] = set-up: method as in earlier work; conditions: mice, cited from earlier work
[4] = set-up: method as in PMID 31100382; conditions: rats; oral administration; after one hour; cited from earlier work
[5] = cited from earlier work
cellular monolayer = test system: cellular monolayer; set-up: method as in doi:10.1021/acsomega.8b03499; conditions: sweet cherry phenolics; cited from earlier work
[6] = set-up: method as in PMID 24191680; conditions: sour cherry fruit and nectar samples, depending on ingredients and processing; cited from earlier work
[7] = set-up: method as in doi:10.1016/j.jff.2018.10.025; conditions: rats; after 6 h; cited from earlier work
[8] = set-up: method as in Rodríguez-Roque et al. [11]; conditions: fruit juice blends, traditional thermal treatment; ref Rodríguez-Roque et al. [11]; cited from earlier work

Apical Recovery (%) of catechin (Caco-2 cells): 68–69%
Structure (SMILES): O.Oc1cc(O)c2c(c1)O[C@H](c1ccc(O)c(O)c1)[C@@H](O)C2 [catechin, Catechin]
catechin lost after gastrointestinal digestion [1]: 51.8–61.0% | permeation across the intestinal tissue [2]: 12.5 µg | maximum plasma catechin level ([3]; sour mangosteen rind): 1.10 µg/mL | maximum concentration in plasma [4]: 120 ± 3.97 ng/mL

Structure (SMILES): O=C(O[C@@H]1Cc2c(O)cc(O)cc2O[C@@H]1c1ccc(O)c(O)c1)c1cc(O)c(O)c(O)c1 [epicatechin gallate]
amounts in plasma with chocolate food matrix ([5]; five healthy 22-year-old women): reduced | form detected in plasma ([5]; five healthy 22-year-old women): aglycon form

Structure (SMILES): Oc1cc(O)c2c(c1)O[C@H](c1ccc(O)c(O)c1)[C@H](O)C2 [epicatechin]
amounts in plasma with chocolate food matrix ([5]; five healthy 22-year-old women): no alteration | form detected in plasma ([5]; five healthy 22-year-old women): conjugated metabolites | maximum plasma epicatechin concentration ([3]; sour mangosteen peel): 62.03 µg/mL | quantity that crossed the cell monolayer (cellular monolayer): 0.37% | basolateral side recovery [6]: 1.1–3.8%

Structure (SMILES): O=C(O[C@@H]1Cc2c(O)cc(O)cc2O[C@@H]1c1cc(O)c(O)c(O)c1)c1cc(O)c(O)c(O)c1 [epigallocatechin gallate]
amounts in plasma with chocolate food matrix ([5]; five healthy 22-year-old women): reduced | form detected in plasma ([5]; five healthy 22-year-old women): aglycon form

Structure (SMILES): Oc1cc(O)c2c(c1)O[C@H](c1cc(O)c(O)c(O)c1)[C@H](O)C2 [epigallocatechin]
amounts in plasma with chocolate food matrix ([5]; in vivo): no alteration | form detected in plasma ([5]; in vivo): conjugated metabolites

Structure (SMILES): Oc1cc(O)c2c(c1)OC(c1ccc(O)c(O)c1)C(O)C2 (stereo not drawn) [free catechin]
bioavailability (plasma catechin values) [7]: 0.241 µM·h

Structure (SMILES): O=C1O[C@H]([C@@H](O)CO)C(O)=C1O [vitamin C]
bioaccessibility [8]: 11.1%
